Reference: PubChem BioAssay (NCI)
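Abbreviation: GI50, concentration required for 50% inhibition of growth. TGI: concentration producing complete growth inhibition.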

Assays:
Test in all cases: NCI anticancer screen, dose series, 384-well format
[1] = system: NCI-H522 lung
[2] = system: HCT-15 colon
[3] = system: MCF7 breast
[4] = system: TK-10 renal
[5] = system: HOP-62 NSCLC
[6] = system: MDA-MB-435 melanoma
[7] = system: HCT-116 colon
[8] = system: NCI-H23 lung
[9] = system: SN12C renal
[10] = system: PC-3 prostate
[11] = system: NCI-H460 NSCLC
[12] = system: CCRF-CEM leukemia
[13] = system: IGROV1 ovarian
[14] = system: A498 renal
[15] = system: EKVX NSCLC
[16] = system: ACHN renal
[17] = system: T-47D breast
[18] = system: SW-620 colon
[19] = system: CAKI-1 renal
[20] = system: OVCAR-4 ovarian
[21] = system: OVCAR-5 ovarian
[22] = system: SF-268 CNS
[23] = system: SF-539 CNS
[24] = system: NCI/ADR-RES ovarian
[25] = system: MALME-3M melanoma
[26] = system: MOLT-4 leukemia
[27] = system: HS 578T breast
[28] = system: OVCAR-8 ovarian
[29] = system: KM12 colon
[30] = system: SNB-75 CNS
[31] = system: DU-145 prostate
[32] = system: RXF 393 renal
[33] = system: HL-60(TB) leukemia
[34] = system: SK-MEL-5 melanoma
[35] = system: SNB-19 CNS
[36] = system: SK-OV-3 ovarian
[37] = system: OVCAR-3 ovarian
[38] = system: MDA-MB-231 breast
[39] = system: HCC-2998 colon
[40] = system: 786-0 renal
[41] = system: MDA-MB-468 breast
[42] = system: HOP-92 NSCLC
[43] = system: NCI-H226 lung
[44] = system: SK-MEL-28 melanoma
[45] = system: SK-MEL-2 melanoma
[46] = system: U251 glioblastoma
[47] = system: SF-295 CNS
[48] = system: NCI-H322M lung
[49] = system: COLO 205 colon
[50] = system: HT29 colon
[51] = system: UACC-257 melanoma
[52] = system: A549 NSCLC
[53] = system: UACC-62 melanoma
[54] = system: K-562 leukemia
[55] = system: BT-549 breast
[56] = system: LOX IMVI melanoma
[57] = system: SR leukemia
[58] = system: RPMI-8226 leukemia
[59] = system: M14 melanoma

Compound: CN1CCN(c2ccc(OC(F)(F)F)c(Nc3ncc4c(n3)-c3c(c(C(N)=O)nn3CCO)CC4)c2)CC1
- GI50 [1]: < 0.01 µM
- TGI [1]: 0.0266 µM
- GI50 [2]: 0.0561 µM
- TGI [2]: 0.347 µM
- GI50 [3]: 0.0183 µM
- TGI [3]: 12.5 µM
- GI50 [4]: 17.3 µM
- TGI [4]: > 100 µM
- GI50 [5]: 0.0252 µM
- TGI [5]: 0.297 µM
- GI50 [6]: 0.0108 µM
- TGI [6]: 0.0288 µM
- GI50 [7]: 0.0198 µM
- TGI [7]: 13 µM
- GI50 [8]: 0.0139 µM
- TGI [8]: 0.0377 µM
- GI50 [9]: 0.546 µM
- TGI [9]: 15.1 µM
- GI50 [10]: 0.0438 µM
- TGI [10]: 35.2 µM
- GI50 [11]: 0.0178 µM
- TGI [11]: 0.0377 µM
- GI50 [12]: < 0.01 µM
- TGI [12]: < 0.01 µM
- GI50 [13]: 0.0406 µM
- TGI [13]: 15.9 µM
- GI50 [14]: 0.0871 µM
- TGI [14]: 17.3 µM
- GI50 [15]: 0.0936 µM
- TGI [15]: 19.4 µM
- GI50 [16]: 0.554 µM
- TGI [16]: 19.7 µM
- GI50 [17]: 0.184 µM
- TGI [17]: 8.33 µM
- GI50 [18]: 0.0136 µM
- TGI [18]: 0.145 µM
- GI50 [19]: 0.478 µM
- TGI [19]: 19.4 µM
- GI50 [20]: 6.1 µM
- TGI [20]: 27.1 µM
- GI50 [21]: 0.0308 µM
- TGI [21]: > 100 µM
- GI50 [22]: < 0.01 µM
- TGI [22]: 0.012 µM
- GI50 [23]: 0.0308 µM
- TGI [23]: 0.263 µM
- GI50 [24]: 0.325 µM
- TGI [24]: 1.33 µM
- GI50 [25]: 0.0685 µM
- TGI [25]: 16.7 µM
- GI50 [26]: 0.01 µM
- TGI [26]: 0.0221 µM
- GI50 [27]: 0.0202 µM
- TGI [27]: 0.0541 µM
- GI50 [28]: 0.0183 µM
- TGI [28]: 0.0376 µM
- GI50 [29]: 0.0114 µM
- TGI [29]: 0.0954 µM
- GI50 [30]: 0.064 µM
- TGI [30]: 4.69 µM
- GI50 [31]: 0.0264 µM
- TGI [31]: 0.104 µM
- GI50 [32]: 0.0151 µM
- TGI [32]: 0.0439 µM
- GI50 [33]: < 0.01 µM
- TGI [33]: < 0.01 µM
- GI50 [34]: 0.0115 µM
- TGI [34]: 0.121 µM
- GI50 [35]: 0.0392 µM
- TGI [35]: > 100 µM
- GI50 [36]: 0.0376 µM
- TGI [36]: > 100 µM
- GI50 [37]: < 0.01 µM
- TGI [37]: 0.0372 µM
- GI50 [38]: 0.0383 µM
- TGI [38]: 58.1 µM
- GI50 [39]: 0.0184 µM
- TGI [39]: 0.0616 µM
- GI50 [40]: 0.0527 µM
- TGI [40]: 10.3 µM
- GI50 [41]: < 0.01 µM
- TGI [41]: < 0.01 µM
- GI50 [42]: 0.0739 µM
- TGI [42]: 6.66 µM
- GI50 [43]: 14.8 µM
- TGI [43]: 56.3 µM

Compound: N#Cc1ccc(-c2c(-c3ncn[nH]3)sc(N3CCOCC3)c2C#N)c(F)c1
- GI50 [1]: 1.98 µM
- TGI [1]: 17.3 µM
- GI50 [44]: 1.76 µM
- TGI [44]: > 67.9 µM
- GI50 [45]: 2.64 µM
- TGI [45]: 12.6 µM
- GI50 [2]: 1.69 µM
- TGI [2]: 15.9 µM
- GI50 [3]: 0.222 µM
- TGI [3]: 20.6 µM
- GI50 [46]: 7.2 µM
- TGI [46]: > 80.6 µM
- GI50 [4]: 0.789 µM
- TGI [4]: 9.59 µM
- GI50 [5]: 3.4 µM
- TGI [5]: 21 µM
- GI50 [6]: 2.47 µM
- TGI [6]: 19.5 µM
- GI50 [7]: 1.52 µM
- TGI [7]: 38.5 µM
- GI50 [8]: 2.35 µM
- TGI [8]: > 55.3 µM
- GI50 [9]: 0.145 µM
- TGI [9]: 3.77 µM
- GI50 [10]: 0.641 µM
- TGI [10]: 8.87 µM
- GI50 [11]: 0.68 µM
- TGI [11]: 11.4 µM
- GI50 [12]: 2.21 µM
- TGI [12]: 9.61 µM
- GI50 [13]: 0.191 µM
- TGI [13]: 0.631 µM
- GI50 [47]: 1.24 µM
- TGI [47]: 15.7 µM
- GI50 [14]: 0.577 µM
- TGI [14]: 2.67 µM
- GI50 [15]: 0.368 µM
- TGI [15]: 3.44 µM
- GI50 [48]: 1.32 µM
- TGI [48]: 5.36 µM
- GI50 [16]: 0.525 µM
- TGI [16]: 14.2 µM
- GI50 [17]: 0.152 µM
- TGI [17]: 2.54 µM
- GI50 [18]: 4.94 µM
- TGI [18]: 23.6 µM
- GI50 [49]: 1.65 µM
- TGI [49]: 17.4 µM
- GI50 [19]: 0.557 µM
- TGI [19]: 13.2 µM
- GI50 [50]: 0.9 µM
- TGI [50]: 17.9 µM
- GI50 [51]: 2.51 µM
- TGI [51]: 15.1 µM
- GI50 [20]: 1.96 µM
- TGI [20]: 22.1 µM
- GI50 [52]: 1.35 µM
- TGI [52]: 11.8 µM
- GI50 [21]: 1.01 µM
- TGI [21]: 26.1 µM
- GI50 [22]: 4.1 µM
- TGI [22]: 33 µM
- GI50 [23]: 1.7 µM
- TGI [23]: 20 µM
- GI50 [24]: 5.53 µM
- TGI [24]: 63.6 µM
- GI50 [25]: 0.95 µM
- TGI [25]: 6.92 µM
- GI50 [26]: 0.413 µM
- TGI [26]: 1.71 µM
- GI50 [53]: 1.01 µM
- TGI [53]: 10.8 µM
- GI50 [27]: 0.779 µM
- TGI [27]: 16 µM
- GI50 [28]: 3.52 µM
- TGI [28]: > 60.2 µM
- GI50 [29]: 3.64 µM
- TGI [29]: 20.3 µM
- GI50 [30]: 0.32 µM
- GI50 [31]: 1.91 µM
- TGI [31]: 15.1 µM
- GI50 [54]: 6.27 µM
- TGI [54]: > 100 µM
- GI50 [32]: 1.27 µM
- TGI [32]: 7.45 µM
- GI50 [55]: 1.95 µM
- TGI [55]: 12.8 µM
- GI50 [56]: 1.93 µM
- TGI [56]: 13.5 µM
- GI50 [33]: 0.209 µM
- TGI [33]: 1.44 µM
- GI50 [34]: 1.77 µM
- TGI [34]: 10 µM
- GI50 [35]: 14.7 µM
- TGI [35]: > 70.8 µM
- GI50 [36]: 0.315 µM
- TGI [36]: 5.89 µM
- GI50 [57]: 0.763 µM
- TGI [57]: 2.57 µM
- GI50 [37]: 0.837 µM
- TGI [37]: 5.83 µM
- GI50 [38]: 5.88 µM
- TGI [38]: > 62.6 µM
- GI50 [39]: 1.23 µM
- TGI [39]: 10.8 µM
- GI50 [40]: 2.13 µM
- TGI [40]: 11.5 µM
- GI50 [41]: 0.54 µM
- TGI [41]: 2.68 µM
- GI50 [42]: 1.16 µM
- TGI [42]: > 33 µM
- GI50 [43]: 2.01 µM
- TGI [43]: 17.3 µM
- GI50 [58]: 1.82 µM
- TGI [58]: 5.06 µM
- GI50 [59]: 2.95 µM
- TGI [59]: 31.8 µM
